“Also recorded” adds a separate entry of the source. [ ]: non-standard residue; d: D form. The star is where a group is joined. FITC = O=C1OC2(c3ccc(O)cc3Oc3cc(O)ccc32)c2ccc(NC(=S)*)cc21; pT = C[C@@H](OP(=O)(O)O)[C@H](N)C(=O)O; Ahx = NCCCCCC(=O)O

The term IC50 denotes the midpoint of a concentration-inhibition curve. As a reminder, the Ki is a measure of affinity in units of concentration, obtained from inhibition or displacement. One may read the GI50 as the concentration giving 50% growth inhibition.

The target of series [1] is T1, full-length Plk1 (Homo sapiens, UniProt P53350).
T1 construct: expressed in transfected cells; host or cells: HEK293A cells infected with adenovirus; total lysate
As to the kind of experiment: ELISA-based PBD1-binding inhibition assay. The conditions noted are these: total lysates from HEK293A cells expressing full-length Plk1; biotinylated PBIP1 p-T78 peptide; read-out: Anti-Plk1 (full length) ELISA (IC50) Mean ± SEM. Background: In an ELISA, binding on a coated surface is turned into a signal by an enzyme label.

The test system of series [2] is L363 cells. In words: MTS cell viability assay, L363 cells. Format: cell-based. The conditions noted are these: 48 h treatment.
Series [3] concerns the target T2, Plk1 PBD (PBD1) (Homo sapiens, UniProt P53350).
T2 construct: constructs expressing PBD1 (residues 345–603) WT (pKM7650); His; TEV site (N); made in house; host or cells: bacteria (E. coli)
As to the kind of experiment: FP-based inhibition assay, PBD1. Format: binding. The conditions noted are these: FP, bacterially expressed purified PBD, FITC-ligand 15 nM, PBD at EC85; read-out: PBD1 IC50 ± SD. The protocol: (§1) FP assays were carried out essentially as described previously ([35], [36]). […] All the samples were analyzed approximately 30 min after reaction in a 384-well format using the SpectraMax Paradigm multimode microplate detection platform (Molecular Devices). Data were analyzed after carrying out at least three independent experiments using GraphPad Prism software version 8.

Series [4] concerns the target T3, Plk2 PBD (PBD2) (Homo sapiens, UniProt Q9NYY3).
T3 construct: Purification of PBD2-His (355–685) (pKM3358) and its S652F mutant (pKM7980); His (C); made in house; host or cells: bacteria (E. coli)
T3 sequence (Q9NYY3 355-685): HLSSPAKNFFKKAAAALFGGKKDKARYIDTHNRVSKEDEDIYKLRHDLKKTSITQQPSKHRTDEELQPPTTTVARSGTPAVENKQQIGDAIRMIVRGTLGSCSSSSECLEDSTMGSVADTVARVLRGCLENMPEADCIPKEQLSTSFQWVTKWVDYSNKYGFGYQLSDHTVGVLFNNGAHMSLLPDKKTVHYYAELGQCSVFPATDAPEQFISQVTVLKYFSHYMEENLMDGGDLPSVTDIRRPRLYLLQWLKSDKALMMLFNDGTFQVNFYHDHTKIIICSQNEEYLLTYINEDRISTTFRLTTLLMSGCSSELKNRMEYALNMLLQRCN
In words: FP-based inhibition assay, PBD2. The conditions noted are these: bacterially expressed purified PBD, FITC-ligand 15 nM, PBD at EC85. Format: binding. The protocol: as §1

Series [5] concerns the target T4, Plk3 PBD (PBD3) (Homo sapiens, UniProt Q9H4B4).
T4 construct: MBP-PBD3-His (335–646) (pKM3359) and its A612F (pKM7981); His (C); made in house; host or cells: bacteria (E. coli)
T4 sequence (Q9H4B4 335-646): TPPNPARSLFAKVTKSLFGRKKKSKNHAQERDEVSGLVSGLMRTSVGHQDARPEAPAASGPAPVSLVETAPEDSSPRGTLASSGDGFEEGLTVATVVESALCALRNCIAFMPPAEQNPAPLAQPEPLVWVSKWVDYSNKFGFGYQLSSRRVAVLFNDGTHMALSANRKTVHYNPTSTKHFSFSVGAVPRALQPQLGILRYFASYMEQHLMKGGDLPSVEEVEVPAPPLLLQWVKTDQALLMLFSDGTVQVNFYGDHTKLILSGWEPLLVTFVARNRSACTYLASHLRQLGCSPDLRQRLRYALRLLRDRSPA
As to the kind of experiment: FP-based inhibition assay, PBD3. Format: binding. The conditions noted are these: bacterially expressed purified PBD, FITC-ligand 15 nM, PBD at EC85. As to the method:
(§2) FP assays were carried out essentially as described previously ([35], [36]). FITC-conjugated ligands (15 nM) were mixed with PBDs at their EC85 concentrations. All the samples were analyzed approximately 30 min after reaction in a 384-well format using the SpectraMax Paradigm multimode microplate detection platform (Molecular Devices). Data were analyzed after carrying out at least three independent experiments using GraphPad Prism software version 8.

For series [6], the target named is BZP Rat brain site. As to the kind of experiment: PDSP off-target binding screen. The conditions noted are these: read-out: Secondary screen Ki. The source says: (§3) PDSP no. Compound Interactions (Ki, µM)
(§4) 60477 Allopole-A None observed.
(§5) trigger a secondary screen at that receptor.

Series [7] in a line: Conversion of prodrug 6 to active species 5 by GSH (HPLC). Format: physicochemical. The conditions noted are these: room temperature, after 5 min. As to the method: To a solution of 6 (1.0 mg, 2.4 µmol) in 0.800 mL of MeOH-d4 was added a solution of glutathione (1.1 mg, 3.6 µmol) and sodium carbonate (0.76 mg, 7.2 µmol) in 0.200 mL of D2O. The reaction was stirred at room temperature and sampled at 5, 10, 20, and 60 min. Aliquots were flash-frozen on dry ice and always stored at −80 °C. HPLC and mass spectrometry were used to analyze the reaction mixtures.
HPLC analysis of both pure 6 (rt = 13.95 min) and 5 (rt = 11.16 min) using the method of acetonitrile 05 to 95% and 10 mM triethylammonium acetate 95 to 5% in 20 min gave standards to compare against the reaction mixture. The HPLC analysis of the reaction mixture, compared to standards, was performed using a Hewlett−Packard 1100 HPLC equipped with an Agilent Eclipse 5 µm XDB-C18 analytical column (50 mm × 4.6 mm; Agilent Technologies Inc.).

A short description of series [8]: Solubility in PBS (imaging of insoluble particles, dynamic light scattering). Format: physicochemical. The conditions noted are these: PBS buffer (pH 7.4). The protocol: All samples were analyzed after adjusting the concentration to 100 μM solution in the PBS buffer (pH 7.4) containing 1% DMSO. The measurements were carried out at 25 °C using the DynaPro NanoStar system (Wyatt Technology). The intensity of the scattered light was measured as a function of time, and the resulting data were used to calculate the size and distribution of the particles in the sample. Collected data were analyzed using the DYNAMICS software to calculate the mean size and polydispersity index of the particles in the sample. At least three repeat measurements were performed to ensure that the results were accurate and reproducible.
Fig. S1. Solubility and activity of Allopole and its related compounds. (A) Images showing insoluble
particles of 200 µM of the indicated compounds dissolved in the PBS buffer. The aggregates of […]

For series [9], the system named is 45 receptors and channels. In words: PDSP off-target screen (whole panel). Format: binding, human.
Source text: as §3, §4, §5

In series [10] the test system is Flag-Plk1 K82M. As to the kind of experiment: Pulldown with biotinylated compound 22, Plk1. Format: binding. The conditions noted are these: streptavidin agarose, anti-Flag immunoblot. As to the method: (§6) A mixture of total cell lysates expressing Flag-Plk1 K82M (pKL577), Flag-Plk2 K108M (pKL1416), or Flag-Plk3 K52R (pKM203) (a gift from Wei Dai, New York University School of Medicine, NY) was prepared in TBSN buffer and incubated with a biotinylated Allopole-A-derivative, 22, or biotin alone. The resulting samples were then subjected to pulldown analyses with streptavidin agarose bead (Thermo Fisher Scientific), after which they were separated by SDS-PAGE and immunoblotted with anti-Flag antibody.
(In western blotting, separated proteins are transferred to a membrane and probed.)

Series [11] concerns Flag-Plk2 K108M. In words: Pulldown with biotinylated compound 22, Plk2. Format: binding. The conditions noted are these: streptavidin agarose, anti-Flag immunoblot. The protocol: as §6
For series [12], the target named is T5, Flag-Plk3 K52R (Homo sapiens, UniProt Q9H4B4, K91R).
T5 construct: expressed in transfected cells; host or cells: HEK293 cells; mixed total lysates
As to the kind of experiment: Pulldown with biotinylated compound 22, Plk3. Format: binding. The conditions noted are these: streptavidin agarose, anti-Flag immunoblot. As to the method: as §6

Series [13] deals with T6, PBD1 F559D mutant (Homo sapiens, UniProt P53350, F559D).
T6 construct: constructs expressing PBD1 (residues 345–603) WT (pKM7650), F559D (pKM7878); His; TEV site (N); made in house; host or cells: bacteria (E. coli)
As to the kind of experiment: FP-based binding/inhibition assay, PBD1 F559D. The conditions noted are these: FP binding, PBD1 F559D vs WT. As to the method:
as §2
(§7) Fig. S4. Generation of F559 mutants for in vitro and cell-based assays in Fig. 4. (A) SDS-PAGE showing the proteins used for the FP assays in Fig. 4 A and B. CBB, a Coomassie Brilliant Blue– stained gel. (B) Summary of Kd and EC85 values for PBD1 WT and mutants. The Kd values for PBD1 WT and mutants were determined after extrapolating them from the binding curves as the concentration at which 50% of the FITC-Ahx-DPPLHSpTAI-NH2 are PBD1-bound. The EC85 values indicate the effective concentration of 85% of the maximal concentration calculated for each protein. The FP values were obtained 30 minutes after incubation. For the F559K and F559R mutants, we were not able to determine the EC85 values and therefore used 2 µM of these proteins for the assays in Fig. 4B. N.D., not determined. […]

In series [14] the target is T7, PBD1 F559E mutant (Homo sapiens, UniProt P53350, F559E).
T7 construct: constructs expressing PBD1 (residues 345–603) WT (pKM7650), F559D (pKM7878), F559E (pKM7879); His; TEV site (N); made in house; host or cells: bacteria (E. coli)
As to the kind of experiment: FP-based binding/inhibition assay, PBD1 F559E. The conditions noted are these: FP binding, PBD1 F559E vs WT. The protocol: as §2, §7

In series [15] the target is T8, PBD1 F559K mutant (Homo sapiens, UniProt P53350, F559K).
T8 construct: constructs expressing PBD1 (residues 345–603) WT (pKM7650); His; TEV site (N); made in house; host or cells: bacteria (E. coli)
In words: FP-based binding/inhibition assay, PBD1 F559K. The conditions noted are these: FP binding, PBD1 F559K vs WT. The protocol: as §2, §7

Series [16] concerns the target T9, PBD1 F559R mutant (Homo sapiens, UniProt P53350, F559R).
T9 construct: constructs expressing PBD1 (residues 345–603) WT (pKM7650); His; TEV site (N); made in house; host or cells: bacteria (E. coli)
As to the kind of experiment: FP-based binding/inhibition assay, PBD1 F559R. The conditions noted are these: FP binding, PBD1 F559R vs WT. The protocol: as §2, §7

For series [17], the system named is cultured cells. Further details: method as in PMID 31685831. The conditions noted are these: cited from earlier work.

T1 sequence (P53350 whole entry): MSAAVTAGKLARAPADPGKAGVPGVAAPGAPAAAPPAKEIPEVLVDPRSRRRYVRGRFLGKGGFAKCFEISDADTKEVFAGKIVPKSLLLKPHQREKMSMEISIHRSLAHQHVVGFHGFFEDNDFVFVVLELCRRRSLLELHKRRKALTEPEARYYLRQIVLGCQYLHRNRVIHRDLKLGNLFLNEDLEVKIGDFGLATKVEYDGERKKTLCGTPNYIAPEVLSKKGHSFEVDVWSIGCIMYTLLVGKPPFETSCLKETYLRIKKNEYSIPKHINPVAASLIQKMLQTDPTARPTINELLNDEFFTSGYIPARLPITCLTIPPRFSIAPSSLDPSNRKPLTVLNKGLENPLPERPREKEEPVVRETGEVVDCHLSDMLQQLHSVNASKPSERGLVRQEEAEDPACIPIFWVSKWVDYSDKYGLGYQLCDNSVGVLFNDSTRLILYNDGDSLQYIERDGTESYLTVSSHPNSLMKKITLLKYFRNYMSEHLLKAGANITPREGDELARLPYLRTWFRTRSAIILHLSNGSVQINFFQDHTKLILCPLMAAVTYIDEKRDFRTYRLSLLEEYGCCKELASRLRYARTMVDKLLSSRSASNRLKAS
T7 sequence (P53350 345-603 F559E): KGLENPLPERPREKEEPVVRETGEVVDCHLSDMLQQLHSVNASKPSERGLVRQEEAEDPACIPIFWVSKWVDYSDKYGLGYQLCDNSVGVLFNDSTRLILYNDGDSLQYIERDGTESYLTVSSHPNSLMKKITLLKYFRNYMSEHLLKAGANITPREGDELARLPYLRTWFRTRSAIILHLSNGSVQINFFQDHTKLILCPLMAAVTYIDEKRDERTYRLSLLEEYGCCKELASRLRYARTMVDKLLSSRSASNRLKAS
T5 sequence (Q9H4B4 40-646 K91R limits assumed): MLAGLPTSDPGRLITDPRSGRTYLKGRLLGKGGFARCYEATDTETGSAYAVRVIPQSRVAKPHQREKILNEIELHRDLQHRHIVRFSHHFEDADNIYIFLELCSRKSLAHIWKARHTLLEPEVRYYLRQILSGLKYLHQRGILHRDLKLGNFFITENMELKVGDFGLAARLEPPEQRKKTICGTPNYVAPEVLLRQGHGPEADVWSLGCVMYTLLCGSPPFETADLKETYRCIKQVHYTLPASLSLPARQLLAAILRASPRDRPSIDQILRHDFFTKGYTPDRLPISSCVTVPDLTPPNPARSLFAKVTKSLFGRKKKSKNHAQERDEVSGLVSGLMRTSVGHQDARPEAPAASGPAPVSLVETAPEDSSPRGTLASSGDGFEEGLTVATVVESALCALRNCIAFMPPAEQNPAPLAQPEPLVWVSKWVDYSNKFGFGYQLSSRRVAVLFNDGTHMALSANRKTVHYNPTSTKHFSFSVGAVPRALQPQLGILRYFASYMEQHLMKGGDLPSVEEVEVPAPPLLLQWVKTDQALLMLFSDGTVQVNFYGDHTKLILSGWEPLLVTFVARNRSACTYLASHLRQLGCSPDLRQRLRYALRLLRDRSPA
T6 sequence (P53350 345-603 F559D): as the sequence (P53350 345-603 F559E) above, with E215D counted along it
T8 sequence (P53350 345-603 F559K): as the sequence (P53350 345-603 F559E) above, with E215K counted along it
T9 sequence (P53350 345-603 F559R): as the sequence (P53350 345-603 F559E) above, with E215R counted along it
T2 sequence (P53350 345-603): as the sequence (P53350 345-603 F559E) above, with E215F counted along it

With `Cc1cc2c(s1)c(=O)n(CC1CC1)c1n[nH]c(=S)n21` [compound 5], the half-inhibitory concentration (IC50) in [1] was found to be 1660 ± 40 nM; in series [3] it was 12.8 ± 2.6 nM. The “Cell efficacy (GI50) Mean ± SD” value in series [2] is listed as “N. S”. The “PBD2 IC50 ± SD” value in series [4] is “N. S”. The “PBD3 IC50 ± SD” value in series [5] is on record as “N. S”. Besides, in series [6], the Ki came to 410 nM.
As for `Cc1cc2c(s1)c(=O)n(CC1CC1)c1nnc(Sc3c([N+](=O)[O-])ncn3C)n21` [compound 6], in series [1], the IC50 was > 50000 nM. For the same molecule, the concentration for 50% growth inhibition (GI50) in [2] (read-out: Cell efficacy (GI50) Mean ± SD) turned out to be 3130 ± 150 nM. For the same molecule, the “Conversion of prodrug to active species by GSH (in words)” value in series [7] is reported as “complete conversion”. Besides, the “Solubility (in words)” value in series [8] is “low solubility”. Further, the “Interactions (Ki, µM), summary of PDSP screen (in words)” value in series [9] is on record as “None observed”.
For the molecule `O=C(CCCCC1SCC2NC(=O)NC21)NCCOCCOCCOCCOCCC(=O)NCCCn1c(=O)c2cc(F)ccc2n2c(=S)[nH]nc12` (centres unmarked) [compound 22], the IC50 in series [1] came to 9320 ± 170 nM. In addition, the “Pulldown of Plk1 from mixed total lysates (in words)” value in series [10] is on record as “precipitated the full-length Plk1; also recorded: specifically interacts with”. For the same molecule, in series [11], the “Pulldown of Plk2 from mixed total lysates (in words)” value is reported as “not Plk2 or Plk3”. Also, the “Pulldown of Plk3 from mixed total lysates (in words)” value in series [12] is reported as “not Plk2 or Plk3”.
For “FITC-Ahx-DPPLHSpTAI-NH2 ({FITC-Ahx}-DPPLHS[pT]AI-NH2; SMILES CC[C@H](C)[C@H](NC(=O)[C@H](C)NC(=O)[C@@H](NC(=O)[C@H](CO)NC(=O)[C@H](Cc1c[nH]cn1)NC(=O)[C@H](CC(C)C)NC(=O)[C@@H]1CCCN1C(=O)[C@@H]1CCCN1C(=O)[C@H](CC(=O)O)NC(=O)CCCCCNC(=S)Nc1ccc2c(c1)C(=O)OC21c2ccc(O)cc2Oc2cc(O)ccc21)[C@@H](C)OP(=O)(O)O)C(N)=O) [FITC-conjugated phosphopeptide, FP probe, reference compound]”, the “Decrease in affinity of the FITC-phosphopeptide compared to WT” value in series [13] is 1.7 fold; in series [14] it was “approximately sevenfold decreased affinity”; in series [15] it was “more than 27 fold”; in [16], > 42 fold.
Consider Polotyrin, for which the GI50 entry in series [17] is recorded as “a few hundred”.

Values taken from paper PMC10629583, “Specific inhibition of an anticancer target, polo-like kinase 1, by allosterically dismantling its mechanism of substrate recognition” (Proceedings of the National Academy of Sciences of the …, 2023).
